Experimental data: patent US7560466B2, “Methods of treating or preventing autoimmune diseases with 2,4-pyrimidinediamine compounds” (Rigel Pharmaceuticals, Inc., priority 2003, dated 2009)
Where two headings read alike, the source gives them in different places.

Key:
Syk kinase = molecular target: T1, Syk kinase (Homo sapiens, UniProt P43405); experiment: Syk kinase biochemical fluorescence polarization assay; conditions: isolated Syk kinase, 11pt, read-out: fp_syk, 11pt
T1 construct: purchased Upstate, Lake Placid N.Y
Protocol: Many of the 2,4-pyrimidinediamine compounds were tested for the ability to inhibit Syk kinase catalyzed phosphorylation of a peptide substrate in a biochemical fluorescenced polarization assay with isolated Syk kinase. In this experiment, Compounds were diluted to 1% DMSO in kinase buffer (20 mM HEPES, pH 7.4, 5 mM MgCl2, 2 mM MnCl2, 1 mM DTT, 0.1 mg/mL acetylated Bovine Gamma Globulin). Compound in 1% DMSO (0.2% DMSO final) was mixed with ATP/substrate solution at room temperature. Syk kinase (Upstate, Lake Placid N.Y.) was added to a final reaction volume of 20 uL, and the reaction was incubated for 30 minutes at room temperature. […] EDTA (10 mM final)/anti-phosphotyrosine antibody (1× final)/fluorescent phosphopeptide tracer (0.5× final) was added in FP Dilution Buffer to stop the reaction for a total volume of 40 uL according to manufacturer's instructions (PanVera Corporation) The plate was incubated for 30 minutes in the dark at room temperature. Plates were read on a Polarion fluorescence polarization plate reader (Tecan). Data were converted to amount of phosphopeptide present using a calibration curve generated by competition with the phosphopeptide competitor provided in the Tyrosine Kinase Assay Kit, Green (PanVera Corporation).
In Tabe 1, all reported values are IC50s (in μM).

[1] = tested on: cultured human mast cells (CHMC), IgE-induced degranulation; experiment: CHMC low cell density IgE activation: tryptase assay; type: cell-based
Procedure, shortened: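 Tryptase release read fluorogenically (30 min, room temperature) from supernatants of anti-IgE-challenged cultured human mucosal mast cells derived from umbilical cord CD34+ cells, at low density of 1000–1500 cells/well.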

[2] = tested on: cultured human mast cells (CHMC), ionomycin-induced degranulation; experiment: CHMC low cell density ionomycin activation: tryptase assay; type: cell-based; conditions: 3pt, read-out: LD Tryptase, CHMC, Iono, 3pt
[3] = low cell density CHMC, 3pt, read-out: LD Tryptase, CHMC, IgE, 3pt
[4] = low cell density CHMC, ionomycin activation (2 μM final)
[5] = Homo sapiens, Mast cell, low cell density CHMC, 8pt, read-out: LD Tryptase, CHMC, IgE, 8pt
[6] = Homo sapiens, Mast cell, low cell density CHMC, ionomycin activation (2 μM final)
[7] = low cell density CHMC, 8pt, read-out: LD Tryptase, CHMC, IgE, 8pt
[8] = CHMC low cell density, 3pt, read-out: LD Tryptase, CHMC, IgE, 3pt
[9] = CHMC low cell density, ionomycin activation

`COc1cc(Nc2ncc(F)c(Nc3ccc4c(c3)NC(C)(C)CO4)n2)cc(OC)c1` [Compound 203, N4-(3,4-Dihydro-3,3-dimethyl-2H,4H-benz[1,4]oxazin-6-yl)-N2-(3,5-dimethoxyphenyl)-5-fluoro-2,4-pyrimidinediamine] was tested, and the IC50 (Syk kinase) was less than 10 µM.
With `O=C1Nc2cc(Nc3nc(Nc4ccc(-c5cnco5)cc4)ncc3F)ccc2OC1CCO` (stereo not shown) [Compound 227] the IC50 (Syk kinase) was less than 10 µM.
`COc1cc(Nc2ncc(F)c(Nc3ccc4c(c3)NC(=O)C(C)S4(=O)=O)n2)cc(OC)c1` (stereo not shown) [Compound 263, N2-(3,5-Dimethoxyphenyl)-N4-(dioxide-2-methyl-1,1,3-trioxo-4H-benzo[1,4]thiazin-6-yl)-5-fluoro-2,4-pyrimidinediamine] was tested, and the IC50 (Syk kinase) was less than 10 µM.
Molecule `Cc1cc(C)cc(Nc2ncc(F)c(Nc3ccc4c(c3)NC(=O)C(C)S4(=O)=O)n2)c1` (stereo not shown) [Compound 264] has an IC50 (Syk kinase) of less than 10 µM.
For `CC1C(=O)Nc2cc(Nc3nc(Nc4ccc5cn[nH]c5c4)ncc3F)ccc2S1(=O)=O` (stereo not shown) [Compound 265], the IC50 (Syk kinase) was less than 10 µM.
Work on `COc1cc(Nc2ncc(F)c(Nc3ccc4c(c3)NC(=O)C(C)S4(=O)=O)n2)cc(OC)c1OC` (stereo not shown) [Compound 266] yielded an IC50 (Syk kinase) of less than 10 µM.
Work on `COc1cc(Nc2ncc(F)c(Nc3ccc4c(c3)NC(=O)C(C)(C)S4(=O)=O)n2)cc(OC)c1` [Compound 267] yielded an IC50 (Syk kinase) of less than 10 µM.
With `Cc1cc(C)cc(Nc2ncc(F)c(Nc3ccc4c(c3)NC(=O)C(C)(C)S4(=O)=O)n2)c1` [Compound 268] the IC50 (Syk kinase) was less than 10 µM.
In the case of `COc1cc(Nc2ncc(F)c(Nc3ccc4c(c3)NC(=O)C(C)(C)S4(=O)=O)n2)cc(OC)c1OC` [Compound 269], the IC50 (Syk kinase) is reported as less than 10 µM.
In the case of `CC1(C)Sc2ccc(Nc3nc(Nc4ccc5cn[nH]c5c4)ncc3F)cc2NC1=O` [Compound 295], the IC50 (Syk kinase) is reported as less than 10 µM.
Molecule `CC1(C)Oc2ccc(Nc3nc(Nc4cc(CO)cc(CO)c4)ncc3F)cc2NC1=O` [Compound 344, N2-[3,5-Bis(hydoxymethylene)phenyl]-N4-(2,2-dimethyl-3-oxo-4H-benz[1,4]oxazin-6-yl)-5-fluoro-2,4-pyrimidinediamine] has an IC50 (Syk kinase) of less than 10 µM.
In the case of `CN(c1ccc2c(c1)OCCO2)c1nc(Cl)ncc1F` [Compound 390], the IC50 (Syk kinase) is reported as greater than 10 µM.
`COc1cc(Nc2ncc(F)c(Nc3ccc4c(c3)NC(=O)C(C)(C)O4)n2)cc(OC)c1OC` [Compound 543] showed an IC50 (Syk kinase) of less than 10 µM.
`CCn1ncc2cc(Nc3ncc(F)c(Nc4ccc5c(c4)NC(=O)C(C)(C)O5)n3)ccc21` [Compound 696] gave an IC50 (Syk kinase) of less than 10 µM.
With `CCCn1ncc2cc(Nc3ncc(F)c(Nc4ccc5c(c4)NC(=O)C(C)(C)O5)n3)ccc21` [Compound 704] the IC50 (Syk kinase) was less than 10 µM.
`CCCn1ncc2ccc(Nc3ncc(F)c(Nc4ccc5c(c4)NC(=O)C(C)(C)O5)n3)cc21` [Compound 708] showed an IC50 (Syk kinase) of less than 10 µM.
`CCCCn1ncc2cc(Nc3ncc(F)c(Nc4ccc5c(c4)NC(=O)C(C)(C)O5)n3)ccc21` [Compound 712] gave an IC50 (Syk kinase) of less than 10 µM.
With `CCCCn1ncc2ccc(Nc3ncc(F)c(Nc4ccc5c(c4)NC(=O)C(C)(C)O5)n3)cc21` [Compound 716] the IC50 (Syk kinase) was less than 10 µM.
Molecule `CC1(C)Oc2ccc(Nc3nc(Nc4ccc5c(cnn5CC5CC5)c4)ncc3F)cc2NC1=O` [Compound 736] has an IC50 (Syk kinase) of less than 10 µM.
Molecule `CC1(C)Oc2ccc(Nc3nc(Nc4ccc5cnn(CC6CC6)c5c4)ncc3F)cc2NC1=O` [Compound 740] has an IC50 (Syk kinase) of less than 10 µM.
`CC1(C)Oc2ccc(Nc3nc(Nc4ccc5c(cnn5C5CCCCC5)c4)ncc3F)cc2NC1=O` [Compound 744] showed an IC50 (Syk kinase) of less than 10 µM.
Molecule `Cc1nn(C)c2cc(Nc3ncc(F)c(Nc4ccc5c(c4)NC(=O)C(C)(C)O5)n3)ccc12` [Compound 754] has an IC50 (Syk kinase) of less than 10 µM.
Work on `CC1(C)Oc2ccc(Nc3nc(Nc4ccc5nc(C(F)(F)F)[nH]c5c4)ncc3F)cc2NC1=O` [Compound 802, N4-(2,2-Dimethyl-3-oxo-4H-benz[1,4]oxazin-6-yl)-5-fluoro-N2-(2-trifluoromethyl-1H-benzimidazol-5-yl)-2,4-pyrimidinediamine] yielded an IC50 (Syk kinase) of less than 10 µM.
With `Cn1nc(N)c2cc(Nc3ncc(F)c(Nc4ccc5c(c4)NC(=O)C(C)(C)O5)n3)ccc21` [Compound 806, N2-(3-A mino-1-methylindazol-5-yl)-N4-(2,2-dimethyl-3-oxo-4H-benz[1,4]oxazin-6-yl)-5-fluoro-2,4-pyrimidinediamine] the IC50 (Syk kinase) was less than 10 µM.
In the case of `Cc1nc2ccc(Nc3ncc(F)c(Nc4ccc5c(c4)NC(=O)C(C)(C)O5)n3)cc2[nH]1` [Compound 810, N4-(2,2-Dimethyl-3-oxo-4H-benz[1,4]oxazin-6-yl)-5-fluoro-N2-(2-methyl-3H-benzimidazol-5-yl)-2,4-pyrimidinediamine], the IC50 (Syk kinase) is reported as less than 10 µM.
With `COc1ccc(Nc2ncc(F)c(Nc3ccc4c(n3)NCCO4)n2)cc1Cl` [Compound 1146, N2-(3-Chloro-4-methoxyphenyl)-N4-(3,4-dihydro-2H,4H-5-pyrid[1,4]oxazin-6-yl)-5-fluoro-2,4-pyrimidinediamine] the IC50 [1, 3] was less than 10 µM and the IC50 [2, 4] was greater than 10 µM.
With `COC(=O)C=NC(=O)c1ccc(Nc2ncc(F)c(Nc3ccc4c(c3)NC(=O)[C@H](C)O4)n2)cc1` [Compound 1271, (S)-5-Fluoro-N2-[4-(N-methoxycarbonylmethyleneamino)carbonylphenyl]-N4-(2-methyl-3-oxo-2H,4H-benz[1,4]oxazin-6-yl)-2,4-pyrimidinediamine] the IC50 [1, 5] was less than 10 µM and the IC50 [2, 6] was greater than 10 µM.
In the case of `COC(=O)C=NC(=O)c1ccc(Nc2ncc(F)c(Nc3ccc4c(c3)NC(=O)[C@@H](C)O4)n2)cc1` [Compound 1272, (R)-5-Fluoro-N2-[4-(N-methoxycarbonylmethyleneamino)carbonylphenyl]-N4-(2-methyl-3-oxo-2H,4H-benz[1,4]oxazin-6-yl)-2,4-pyrimidinediamine], the IC50 [1, 5] is reported as less than 10 µM and the IC50 [2, 6] is reported as greater than 10 µM.
`CNC(=O)CNC(=O)c1ccc(Nc2ncc(F)c(Nc3ccc4c(c3)NC(=O)C(C)(C)O4)n2)cc1` [Compound 1295, N4-(2,2-Dimethyl-3-oxo-4H-benz[1,4]oxazin-6-yl)-5-fluaro-N2-[4-[N-(N-methylamino)carbonylmethylene]aminocarbonylphenyl]-2,4-pyrimidinediamine] gave an IC50 [1, 3] of less than 10 µM, an IC50 [1, 7] of less than 10 µM and an IC50 [2, 4] greater than 10 µM.
In the case of `CNC(=O)CNC(=O)c1ccc(Nc2ncc(F)c(Nc3ccc4c(c3)NC(=O)[C@H](C)O4)n2)cc1` [Compound 1296, (S)-5-Fluoro-N2-[4-[N-(N-methylamino)carbonylmethylene]aminocarbonylphenyl]-N4-(2-methyl-3-oxo-2H,4H-benz[1,4]oxazin-6-yl)-2,4-pyrimidinediamine], the IC50 [1, 3] is reported as less than 10 µM, the IC50 [1, 7] is reported as less than 10 µM and the IC50 [2, 4] is reported as greater than 10 µM.
In the case of `CC(C)(C)OC(=O)NCC(=O)NCc1ccc(Nc2ncc(F)c(Nc3ccc4c(c3)NC(=O)C(C)(C)O4)n2)cc1` [Compound 1307, N2-[4-[1-(tert-Butoxycarbonylamino)methylenecarbonylamino]methylphenyl]-N4-(2,2-dimethyl-3-oxo-4H-benz[1,4]oxazin-6-yl)-5-fluoro-2,4-pyrimidinediamine], the IC50 [1, 3] is reported as less than 10 µM, the IC50 [1, 7] is reported as less than 10 µM and the IC50 [2, 4] is reported as less than 10 µM.
In the case of `C[C@@H]1Oc2ccc(Nc3nc(Nc4ccc(CNC(=O)CNC(=O)OC(C)(C)C)cc4)ncc3F)cc2NC1=O` [Compound 1308, (S)—N2-[4-[1-(tert-Butoxycarbonylamino)methylenecarbonylamino]methylphenyl]-5-fluoro-N4-(2-methyl-3-oxo-2H,4H-benz[1,4]oxazin-6-yl)-2,4-pyrimidinediamine], the IC50 [1, 3] is reported as less than 10 µM, the IC50 [1, 7] is reported as less than 10 µM and the IC50 [2, 4] is reported as less than 10 µM.
`CC(C)(C)OC(=O)NCC(=O)NCc1ccc(Nc2ncc(F)c(Nc3ccc4c(c3)NC(=O)C(F)(F)O4)n2)cc1` [Compound 1309, N2-[4-[1-(tert-Butoxycarbonylamino)methylenecarbonylamino]methylphenyl]-N4-(2,2-difluoro-3-oxo-4H-benz[1,4]oxazin-6-yl)-5-fluoro-2,4-pyrimidinediamine] gave an IC50 [1, 3] of less than 10 µM, an IC50 [1, 7] of less than 10 µM and an IC50 [2, 4] greater than 10 µM.
In the case of “N2-(3-Chloro-4-methoxyphenyl)-N4-(2,2-dimethyl-3-oxo-4H-benz[1,4]oxazin-6-yl)-5-fluoro-N4-methyl-2,4-pyrimidinediamine [Compound 394]”, the IC50 [1, 8] is reported as less than 10 µM and the IC50 [2, 9] is reported as less than 10 µM.
“N2-(Bis-2-hydroxyethyl)-N4-(3,4-ethylenedioxyphenyl)-5-fluoro-N4-methyl-2,4-pyrimidinediamine [Compound 492]” gave an IC50 [1, 8] greater than 10 µM and an IC50 [2, 9] greater than 10 µM.
For “N4-(2,2-Difluoro-3-oxo-4H-benz[1,4]oxazin-6-yl)-5-fluoro-N2-[4-[N-(N-methylamino)carbanylmethylene]aminocarbonyl phenyl]-2,4-pyrimidinediamine [Compound 1297]”, the IC50 [1, 3] was less than 10 µM and the IC50 [2, 4] was greater than 10 µM.
